The text below walks through data of patent US5632988A, “Polypeptide inhibitors of gamma interferon” (Schering Corporation, priority 1992, dated 1997).

Ends that are not written are not given here.

In data set [1] the target is T1, gamma interferon receptors on Daudi cells (Homo sapiens, UniProt P15260).
T1 construct: host or cells: Daudi cells (human B lymphoblast, Burkitt lymphoma)
T1 sequence (P15260 18-489): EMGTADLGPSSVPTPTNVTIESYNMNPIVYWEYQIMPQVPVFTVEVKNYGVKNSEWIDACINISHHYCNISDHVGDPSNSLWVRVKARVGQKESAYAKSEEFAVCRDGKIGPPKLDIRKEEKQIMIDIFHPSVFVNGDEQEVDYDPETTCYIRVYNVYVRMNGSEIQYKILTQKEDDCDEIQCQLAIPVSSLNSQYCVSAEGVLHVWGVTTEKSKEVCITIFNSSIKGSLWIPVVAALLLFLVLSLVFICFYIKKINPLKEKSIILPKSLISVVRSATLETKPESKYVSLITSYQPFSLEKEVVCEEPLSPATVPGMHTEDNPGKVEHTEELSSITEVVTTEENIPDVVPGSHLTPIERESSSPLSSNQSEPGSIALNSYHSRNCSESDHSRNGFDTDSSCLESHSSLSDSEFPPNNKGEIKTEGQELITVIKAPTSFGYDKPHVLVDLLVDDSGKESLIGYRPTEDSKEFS
The data set can be described thus: Inhibition of the binding of 125I-recombinant human gamma interferon to Daudi cells (radioligand-receptor assay). The following applies: for inhibition of the binding of the labeled interferon (in words; type of inhibition): FIGS. 1-4; for Ki: specific binding of 125I-recombinant human gamma interferon to Daudi cells, 2 hours at 4° C., Cheng et al. method. Here is the method:
The receptor assay employed a standard mixture of 6×10^5 Daudi cells in 1 ml of binding medium (RPMI 1640 medium, 10% fetal bovine serum, 0.02% sodium azide) containing 200,000 cpm of the labeled interferon. Controls additionally contained 1 μg of unlabeled interferon to determine nonspecific binding. Assays were carried out by adding 0.1 ml aliquots of binding medium with or without varying amounts of a potentially inhibitory polypeptide or protein to the standard mixtures, and incubating the combined mixtures for 2 hours at 4° C.
Following the incubation, the cells were pelleted by centrifugation at 13,000× g for 30 seconds at 4° C, and the supernatants were discarded. The cells were resuspended in 0.2 ml of fresh binding medium without labeled interferon at 4° C., after which the cells were centrifuged at 13,000× g for 2 minutes through a layer of dibutyl phthalate and dioctyl phthalate [0.2 ml of a 1:1 (vol/vol) mixture] to remove residual labeled interferon that was not specifically bound. Inhibition constants (Ki) were calculated according to the method of Cheng et al. [Biochem. Pharmacol. 22:3099 (1973)], in which [formula] where [L] is the ligand concentration and IC50 is the concentration of inhibitor required to decrease binding by 50%.

Data set [2] deals with murine encephalomyocarditis virus. The data set can be described thus: Antiviral activity assay, human diploid foreskin cells infected with murine encephalomyocarditis virus (Rubinstein et al.). It counts as cell-based. An excerpt: It also is a potent inducer of the maturational differentiation of pro-monocytes to premacrophages. […] 37:755 (1981)]. […] 132:240 (1984)].

In data set [3] the test system is antiviral effects of recombinant human gamma interferon D. The data set can be described thus: Inhibition of antiviral effects of recombinant human gamma interferon D on human diploid foreskin cells challenged with encephalomyocarditis virus (CPE scoring). It counts as cell-based. As to the method:
Control Medium A, various dilutions in Medium A of recombinant human gamma Interferon D in the presence of a fixed concentration of polypeptide No. I, or various dilutions of Medium A of polypeptide No. III in the presence of a fixed concentration of the interferon were pipetted in 0.1 ml total volumes into the wells of 96-well flat bottom microtiter plates.
Aliquots of a suspension of human diploid foreskin cells (0.1 ml, 3.5×10^5 cells/ml) in Medium A were pipetted into the wells of the microtiter plates, and the plates were incubated for 4 hours in a 37° C., 5% CO2 incubator. […]
A 0.025-0.05 aliquot of a solution of crystal violet stain (Sigma Chemical Co., St. Louis, Mo.; 0.485% in an aqueous solution containing 3.2% formaldehyde and 32.3% 95% ethanol) was added to each well, and the plates were allowed to stand for 30 minutes for color development. The stain solution was removed and the wells were washed at least three times with distilled water, after which the plates were scored for CPE with the aid of a fluorescent light viewer.
CPE was graded semi-quantitatively on a scale of 0 to 4, with grade O CPE corresponding to a complete absence of cell lysis as measured by cell staining with crystal violet and grade 4 CPE corresponding to total cell lysis and lack of staining.

As to “AKKLSKDRMKKYMARRKWQKTGHAV [Polypeptide I]”, the “Kd of labeled interferon in the presence of polypeptide (Scatchard analysis)” value in data set [1] (5 μM polypeptide, Daudi cells) was “marked increase”. Consider poly(D-lysine), for which the “inhibition of the binding of the labeled interferon (in words; type of inhibition)” value in data set [1] (Daudi cells) is listed as “strong competitive inhibitors”. Also, in data set [1], the Ki is 190 nM.

Regarding poly(L-glutamic acid), the inhibition constant (Ki) in data set [1] was 290 nM. poly(L-lysine): in data set [1] (Daudi cells), the “inhibition of the binding of the labeled interferon (in words; type of inhibition)” value is “strong competitive inhibitors”. For the same molecule, the inhibitory constant (Ki) in data set [1] was 11000 nM. As for protamine sulfate, in data set [1], the inhibition constant (Ki) worked out at 1100 nM.

B1: Recombinant human gamma interferon D: recombinant human gamma interferon D prepared from transformed E. coli, stimulus in antiviral and HLA-DR assays (protein, UniProt P01579 24-161, looked up)
Interferon gamma: QDPYVKEAENLKKYFNAGHSDVADNGTLFLGILKNWKEESDRKIMQSQIVSFYFKLFKNFKDDQSIQKSVETIKEDMNVKFFNSNKKKRDDFEKLTNYSVTDLNVQRKAIHELIQVMAELSPAAKTGKRKRSQMLFRG
modifications: E. coli recombinant
notes: recombinant human gamma interferon D prepared from transformed E. coli, stimulus in antiviral and HLA-DR assays
As to B1, the antiviral specific activity entry in data set [2] is given as “about 4×10^6 units/mg”. The CPE grade in data set [3] (interferon alone, 30 pM, scale 0 to 4) is reported as 2. The “cell protection / CPE” value in data set [3] (interferon alone, 1,200 pM) is “complete cell protection”.

As a reminder, the Ki is a dissociation constant, usually derived from enzyme kinetics or from competition with a known ligand.
